From US20250213603A1, “PHARMACEUTICAL COMPOSITION FOR TREATING CANCER” (SAGA UNIVERSITY, priority 2021, published 2025)

Legend:
BV173 [1] = assay: Effect of autophagy inhibition on the cell proliferation inhibitory effect; format: cell-based; conditions: 5 mM FA-HP-β-CyD or 15 mM HP-β-CyD, chloroquine, bafilomycin A1 or LY294002 (FIG. 8)
Protocol: (§1) The effect of autophagy inhibition on the cell proliferation inhibitory effect was evaluated as follows.
(§2) Leukemia cell lines (K562 and BV173) were used in this example. The FA-HP-β-CyD synthesized in Example 1 was used.
(§3) 2×10^5 of each cell with 100 μL RPMI1640 medium (Sigma-Aldrich, USA) was seeded per well to a flatbottom 96-well plate (Greiner Labortechnik, Hamburg, Germany), and treatment was carried out for 2 hours at 37° C. with 5 mM FA-HP-β-CyD and 15 mM HP-β-CyD. Pretreatment was then carried out for 24 hours with the autophagy inhibitors chloroquine (20 μM) (FUJIFILM Wako Pure Chemical Corporation), bafilomycin A1 (1 nM) (Funakoshi), or LY294002 (50 μM) (FUJIFILM Wako Pure Chemical Corporation). Cell proliferation was then evaluated using a Cell Counting Kit-8 (Dojindo, Japan), which is a modified dimethyl-thiazole-diphenyl-tetrazolium (MTT) assay.
(§4) Here, the “CT” in FIG. 8 was evaluated as follows. Thus, 2×10^5 of each cell with 100 μL RPMI1640 medium was seeded per well to a flatbottom 96-well plate and culture was carried out for 2 hours+24 hours as in the exposure groups, but without exposure to the agent or autophagy inhibitor, and this was used as the CT. This CT was compared with the exposure groups.
(§5) Significant difference was determined as follows. That is, the data were analyzed using a two-sided Student's t-test without a comparison table. A value of P<0.05 was considered to indicate a significant difference.

K562 [2] = assay: as above; format: cell-based; conditions: 5 mM FA-HP-β-CyD or 15 mM HP-β-CyD, chloroquine, bafilomycin A1 or LY294002 (FIG. 8)
Protocol: as §1, §2, §3, §4, §5

KBM5-STI = assay: Cell proliferation inhibition, modified MTT assay (Cell Counting Kit-8); format: cell-based; conditions: incubation for 72 hours, average±SD of 3 independent experiments
Protocol: (§6) The proliferation inhibitory action in leukemia cell lines was evaluated using a modified dimethyl-thiazole-diphenyl-tetrazolium (MTT) assay as follows.
(§7) The hepatocyte line and leukemia cell lines (K562, BV173, Ba/F3 p190, Ba/F3 p210, MYL-R, K562-IMR, and KBM5-STI) were used in this example. The FA-HP-β-CyD synthesized in Example 1 was used.
(§8) The cell viability was evaluated using the trypan blue dye exclusion method. Cell proliferation was evaluated using a Cell Counting Kit-8 (Dojindo, Japan), which is an MTT assay. 2×10^4 of each cell was seeded with 100 μL RPMI1640 medium (Sigma-Aldrich, USA) per well to a flatbottom 96-well plate (Greiner Labortechnik, Hamburg, Germany), and incubation for 72 hours was carried out with exposure to HP-β-CyD and FA-HP-β-CyD at different concentrations (0 mM (control: CT), 0.05 mM, 0.1 mM, 0.25 mM, 0.5 mM, and 1 mM).

hepatocyte = assay: as above; format: cell-based; conditions: hepatocyte line, incubation for 72 hours, average±SD of 3 independent experiments
Protocol: as §6, §7, §8

Ba/F3 P210 = assay: as above; format: cell-based; conditions: Ba/F3 P210, incubation for 72 hours, average±SD of 3 independent experiments
Protocol: as §6, §7, §8

MYL-R = assay: as above; format: cell-based; conditions: incubation for 72 hours, average±SD of 3 independent experiments
Protocol: as §6, §7, §8

BV173 [3] = assay: as above; format: cell-based
Protocol: as §6, §7, §8

K562 [4] = assay: as above; format: cell-based
Protocol: as §6, §7, §8

[5] = system: BV173 cells (leukemia cells); assay: Ventricular invasion mouse model (leukemic invasion of the central nervous system); format: in vivo, BRJ mice
Protocol: Here, the effect of HP-β-CyD and FA-HP-β-CyD on leukemic central nervous system invasion was test by constructing a mouse model.
BRJ mice (female) were anesthetized (intraperitoneal administration (IP) of 100 μL of a triple anesthetic of medetomidine hydrochloride (0.75 mg/kg), mitazolam (4 mg/kg), and butorphanol tartrate (5 mg/kg)), and intrathecal transplantation was carried out, through the right coronal suture at a point 1 mm to the right of the center line defined by the sagittal suture, with a polyethylene stop tube-equipped microsyringe designed to inject BV173 cells (leukemia cells) precisely to a depth of 3 mm using a Hamilton syringe LT type needle tip style pst-3 and 25 gauge.
The FA-HP-β-CyD synthesized in Example 1 was used in this example.
The doses were set at 30 mg/kg for HP-β-CyD and 3 mg/kg for FA-HP-β-CyD by referring to the dose of HP-β-CyD for a mouse model of the hereditary lipid storage disease Niemann-Pick disease type C (NPC) (Int. J. Mol. Sci. 2021, 22, 452. https://doi.org/10.3390/ijms22010452).
as §5

BV173 [6] = assay: Cell proliferation inhibitory action in the presence of folic acid (MTT assay); format: cell-based; conditions: BV173, 5 mM, FA 2 mM, 2 hours (FIG. 4)
Protocol: (§9) The cell proliferation inhibitory action on leukemia cell lines in the presence of folic acid (FA) was evaluated as follows using the MTT assay.
as §2
(§10) 2×10^4 of each cell with 100 μL of medium was seeded per well to a flatbottom 96-well plate (Greiner Labortechnik, Hamburg, Germany), and incubation for 2 hours at 37° C. was carried out in combination with medium containing HP-β-CyD (5 mM) and FA-HP-β-CyD (5 mM) in the presence or absence of FA (2 mM). Evaluation was then carried out using a Cell Counting Kit-8 (Dojindo, Japan), which is a modified dimethyl-thiazole-diphenyl-tetrazolium (MTT) assay.
(§11) The evaluation here was carried out as follows, respectively, for the “CT” and “only FA” in FIG. 4. Thus, 2×10^4 of each cell with 100 μL of medium was seeded per well to a flatbottom 96-well plate and incubation was carried out for 2 hours at 37° C.; this was evaluated as “CT”. Incubation for 2 hours at 37° C. while exposed to only FA was evaluated as “only FA”.
(§12) Significant difference was established as follows. A two sample t-test was performed on the agents under investigation (FA-HP-β-CyD with FA, FA-HP-β-CyD without FA). A significant difference is established when p<0.05 in the comparison of the two samples.

K562 [7] = assay: as above; format: cell-based; conditions: K562, 5 mM, FA 2 mM, 2 hours (FIG. 4)
Protocol: as §9, §2, §10, §11, §12

folic acid-appended hydroxypropyl-β-cyclodextrin [FA-HP-β-CyD]
cell proliferation inhibitory capability on addition of an autophagy inhibitor (BV173 [1]): reduced by the addition of an autophagy inhibitor
cell proliferation inhibitory capability on addition of an autophagy inhibitor (K562 [2]): reduced by the addition of an autophagy inhibitor
IC50 (KBM5-STI): 800 ± 120 µM
IC50 (hepatocyte): 20.1 ± 4.5 mM
IC50 (Ba/F3 P210): 960 ± 17 µM
IC50 (MYL-R): 930 ± 110 µM
cell proliferation (BV173 [3]; BV173, 0.05-1 mM, 72 hours (FIG. 2)): inhibited in a dose-dependent manner
IC50 (BV173 [3]; BV173, incubation for 72 hours, average±SD of 3 independent experiments): 170 ± 64 µM
cell proliferation (K562 [4]; K562, 0.05-1 mM, 72 hours (FIG. 2)): inhibited in a dose-dependent manner
IC50 (K562 [4]; K562, incubation for 72 hours, average±SD of 3 independent experiments): 690 ± 190 µM
survival in two-time administration model compared with one-time administration model ([5]; FIG. 14 compared with FIG. 13, HP-β-CyD 30 mg/kg, FA-HP-β-CyD 3 mg/kg): survival was extended by one day
survival in comparison to the vehicle group and HP-β-CyD group ([5]; administered two times, first and second week after transplantation, FA-HP-β-CyD 3 mg/kg (FIG. 14)): extension of survival was confirmed
P versus the vehicle group (survival) ([5]; administered two times, first and second week, HP-β-CyD 30 mg/kg, FA-HP-β-CyD 3 mg/kg (FIG. 14)): 0.0472
survival in comparison to the vehicle group and HP-β-CyD group ([5]; single administration in the second week after ventricular transplantation, FA-HP-β-CyD 3 mg/kg (FIG. 13)): extension of survival was confirmed
P versus the vehicle group (survival) ([5]; single administration in the second week, HP-β-CyD 30 mg/kg, FA-HP-β-CyD 3 mg/kg (FIG. 13)): 0.0111
antitumor activity in the presence of FA compared to without FA (BV173 [6]): significantly reduced
antitumor activity in the presence of FA compared to without FA (K562 [7]): significantly reduced
